In patent US12059418B2, “Plasmodial surface anion channel inhibitors for the treatment or prevention of malaria” (The United States of America, as represented by the …, priority 2011, dated 2024):
“Also recorded” adds a separate entry of the source.

Key:
[1] = Mammalian cytotoxicity, MTS viability; format: cell-based, human; settings: human, HeLa cells; 72 h, MTS; read-out: HeLa cell CC50
Experimental: (§1) Cytotoxicity of PSAC inhibitors was measured with human HeLa cells (ATCC # CLL-2) in 96-well plates at 4000 cells/well. Cultures were incubated with each inhibitor at 37° C. for 72 h in Minimal Essential Medium (Gibco/Invitrogen, Carlsbad, Calif.) supplemented with 10% fetal calf serum. Cell viability was quantified using the vital stain MTS [3-(4,5-dimethylthiazol-2-yl)-5-(3-carboxymethonyphenol)-2-(4-sulfophenyl)-2H-tetrazolium, inner salt], as described (Marshall et al., Growth Regul., 5: 69-84 (1995)). The reported CC50 value is the concentration of an inhibitor that reduces conversion of MTS to formazan by 50%.

human HeLa cells = assay: Mammalian cytotoxicity, MTS viability; format: cell-based
Experimental: as §1

PSAC [2] = assay: Transport inhibition assay, osmotic lysis of infected cells in sorbitol (Table 5); format: cell-based, P. falciparum
P. falciparum [3] = assay: microbe, parasite or virus in culture; format: cell-based; settings: for IC50: Plasmodium falciparum, 72 h; for IC50 ratio: RPMI growth IC50 / PLM growth IC50
PSAC [4] = assay: K0.5 for PSAC block, light-scattering osmotic lysis assay in sorbitol (Example 1); format: cell-based, P. falciparum; settings: for IC50: read-out: K0.5 for PSAC block, concentration producing 50% block of PSAC-mediated solute uptake; for K0.5 for PSAC block: concentration producing 50% block of PSAC-mediated solute uptake
Excerpt: The chemical inhibitors included:
In this assay, increases in transmittance (% T, measured at 700 nm) correlated directly to lysis of infected RBCs and were plotted in arbitrary units. Uninfected RBCs lacked PSAC activity and had undetectably low sorbitol permeability.

P. falciparum [5] = assay: In vitro parasite killing, SYBR Green I fluorescence assay in RPMI 1640 or PLM (Example 1); format: cell-based; settings: for IC50: Plasmodium falciparum, 72 h; for Ratio (RPMI/PLM): ratio of IC50 RPMI/PLM
Experimental: In vitro parasite killing by PSAC inhibitors was quantified using a SYBR Green I-based fluorescence assay for parasite nucleic acid in 96-well format.
Cultures were maintained for 3 days at 37° C. in 5% 02, 5% CO2 without media change. After this incubation, Sybr Green I was added in 20 mM Tris, 10 mM EDTA, 0.016% saponin, 1.6% triton X100.

[6] = 37° C., read-out: Transport inhibition K0.5
[7] = PSAC-limiting medium (PLM), 3 days, read-out: PLM IC50
[8] = RPMI 1640 standard media, 3 days, read-out: RPMI IC50

| Compound | CC50 at 72 h [1] | specificity (HeLa CC50/parasite PLM IC50) (human HeLa cells) | IC50 (PSAC [2]; [6]) | IC50 (P. falciparum [3]; read-out: PLM growth IC50) | IC50 (P. falciparum [3]; read-out: RPMI growth IC50) | IC50 ratio (P. falciparum [3]) | other results |
| --- | --- | --- | --- | --- | --- | --- | --- |
| O=C1Nc2cc(C(=O)N3CCN(c4ccccc4)CC3)ccc2Sc2ccccc21 [(3) (TP-52)] | > 100000 nM | >530 | 25 nM | 190 nM | 7300 nM | 38 |  |
| CCCCN(CC)C(=O)c1cc2cc3ccc(C)cc3nc2o1 [(24)] | 30000 nM | 110 | 87 nM | 270 nM | 23000 nM | 114 |  |
| COc1ccc2cc3cc(C(=O)N(C)C4CCCCC4)oc3nc2c1 [(25)] |  |  | 33 nM | 170 nM | 15000 nM | 86 |  |
| CCN(Cc1ccccc1)C(=O)c1ccc2c(c1)NC(=O)c1ccccc1S2 [(31)] | > 100000 nM | >240 | 84 nM | 410 nM | 4700 nM | 15 |  |
| COc1ccc(NC(=O)c2cc3cc4ccc(C)cc4nc3o2)cc1 [(280)] | > 100000 nM | >430 |  | 230 nM | 18000 nM | 270 | IC50 (PSAC [2]; read-out: Transport inhibition K0.5, 37° C.): 6 nM |
| Cc1ccc(C)c(N2CCN(S(=O)(=O)c3ccc(-c4ccc(=O)[nH]n4)s3)CC2)c1 [Compound of formula (1a)] |  |  |  |  |  |  | IC50 (PSAC [4]): 3 nM; IC50 (P. falciparum [5]; [7]): 2.3 nM; IC50 (P. falciparum [5]; [8]): 1500 nM; Ratio (RPMI/PLM) (P. falciparum [5]): 800 |
| CCc1nn2c(=O)cc(CSc3nc4ccc(NC(=O)c5cccs5)cc4s3)nc2s1 [Compound of formula (2a)] |  |  |  |  |  |  | IC50 (PSAC [4]): 10 nM; IC50 (P. falciparum [5]; [7]): 300 nM; IC50 (P. falciparum [5]; [8]): > 30000 nM; Ratio (RPMI/PLM) (P. falciparum [5]): >100 |
| CC1=Nc2ccc(C)cc2C1/C=C1/C(=N)N2N=C(S(=O)(=O)CC(C)C)SC2=NC1=O (centres unmarked) [Cpd 50] | > 100000 nM | >50 | 81 nM | 2000 nM | > 30000 nM | >15 |  |
| O=C1N=C(N2CCCC2)S/C1=C/c1cccc(Cl)c1 [Cpd 80] |  |  | 44 nM | 170 nM | 12500 nM | 130 |  |
| Cc1ccc(C)c(N2CCN(S(=O)(=O)c3ccc(-c4ccc(=O)[nH]n4)s3)CC2)c1 [ISG-21] | 86000 nM | 43,000 | 2.6 nM | 2 nM |  | 800 |  |
| C[C@@H]1CC[C@H]2[C@@H](C)C(=O)O[C@@H]3O[C@@]4(C)CC[C@@H]1[C@]32OO4 [artemisinin] |  |  |  |  |  | 0.66 | K0.5 for PSAC block (PSAC [4]): did not inhibit PSAC activity; K0.5 for PSAC block (PSAC [4]; listed as Artemisinin): inactive; Transport inhibition K0.5 (PSAC [2]; 37° C.): do not inhibit PSAC-mediated solute uptake; also recorded: inactive; IC50 (P. falciparum [5]; [7]): 26 nM; IC50 (P. falciparum [5]; [8]): 18 nM; Ratio (RPMI/PLM) (P. falciparum [5]): 0.66 |
| CCN(CC)CCCC(C)Nc1ccnc2cc(Cl)ccc12 (centres unmarked) [chloroquine, reference compound] |  |  |  | 340 nM | 220 nM |  | K0.5 for PSAC block (PSAC [4]): did not inhibit PSAC activity; Transport inhibition K0.5 (PSAC [2]; 37° C.): do not inhibit PSAC-mediated solute uptake; also recorded: inactive; IC50 (P. falciparum [5]; read-out: PLM IC50): 340 nM; IC50 (P. falciparum [5]; read-out: RPMI IC50): 220 nM |
| O=C1CN(/N=C/c2ccc(-c3ccc([N+](=O)[O-])cc3)o2)C(=O)N1 [dantrolene, reference compound] |  |  | 1200 nM | 3800 nM | 42000 nM | 18 |  |
| NS(=O)(=O)c1cc(C(=O)O)c(NCc2ccco2)cc1Cl [furosemide, reference compound] |  |  |  | 21000 nM | > 200000 nM |  |  |
| OC(c1cc(C(F)(F)F)nc2c(C(F)(F)F)cccc12)C1CCCCN1 (centres unmarked) [mefloquine] |  |  |  |  |  | 0.66 | K0.5 for PSAC block (PSAC [4]): did not inhibit PSAC activity; K0.5 for PSAC block (PSAC [4]; listed as Mefloquine): inactive; Transport inhibition K0.5 (PSAC [2]; 37° C.): do not inhibit PSAC-mediated solute uptake; also recorded: inactive; IC50 (P. falciparum [5]; [7]): 33 nM; IC50 (P. falciparum [5]; [8]): 22 nM; Ratio (RPMI/PLM) (P. falciparum [5]): 0.66 |
